Assay [1] deals with T1, BK potassium channel expressed in GH3 cells (Rattus norvegicus, UniProt Q62976).
T1 construct: endogenous in cells; host or cells: GH3 cells
Description: BK potassium channel current in GH3 cells, inside-out patches. Type of assay: cell-based. As to the method:
Stock solutions of the test article were prepared in dimethylsulfoxide (DMSO) and stored frozen. Test article concentrations were prepared fresh daily by diluting stock solutions into a physiological saline solution (composition in mM): KCl, 125; CaCl2, 8.5; HEPES, 10; EGTA, 11.25; pH adjusted to 7.2 with KOH (prepared weekly and refrigerated until used). All test solutions contained 0.1% DMSO.
GH3 cells were grown in culture using standard procedures. Ionic currents were measured from inside-out patches of GH3 cells. Channel activity was monitored in symmetrical K^+ conditions with a holding potential of −60 mV. Activities before and in the presence of each concentration of test articles were recorded for ≧3 minutes, respectively.
Data acquisition and analyses were performed using the suite of pCLAMP (Ver. 8.2) programs (MDS-AT, Sunnyvale, Calif. Percent inhibition by test article was calculated using the following equation: 100*(NPocontrol−NPotest)/NPocontrol Results

The test system of assay [2] is morphine-induced respiratory depression. Description: Effects of morphine and compound on arterial blood gases in the rat. In kind it is in vivo. Particulars: for PaCO2 (% reversal) / PaO2 (% reversal) / SaO2 (% reversal) / pH (% reversal): morphine 10 mg/kg. As to the method:
Rats with pre-cannulated jugular vein and femoral arterial catheters (for administering drugs and obtaining blood samples respectively) were obtained from Harlan laboratories and kept at the animal facility at Galleon Pharmaceuticals until the experimental procedures. Each animal was dosed with morphine sulfate (10 mg/kg), dissolved in saline at a concentration of 10 mg/mL, via injection into the jugular vein over a period of 20 seconds with a 20 second flush of 0.9% NaCl saline. Prior to morphine administration, two 250 μL samples of arterial blood were aspirated from the femoral artery into a pre-heparinized syringe. The samples were analyzed on Radiometer's ABL Flex 800, where pO2, pCO2, pH, SaO2 and other parameters were recorded. Aspirated volumes of arterial blood were replaced by room temperature sterile saline (˜300 μL) slowly flushed back into the femoral arterial catheter of the rodent to prevent hypovolemia. Morphine was then administered and 2 minutes later another blood sample was taken.
The infusion started at t=15 minutes and ended at t=35 minutes. Arterial blood gas analysis occurred at time points t=12, 18, 25, 35, 40, 45, and 50 minutes.

The target in a further assay is T2, rat KCNK3/TASK-1 (Rattus norvegicus, UniProt O54912).
T2 construct: expressed in transfected cells; host or cells: CHO cells (tetracycline-inducible)
Description: Thallium flux through rat TASK-1 (KCNK3-CHO cells). In kind it is cell-based. Particulars: Tl+ flux; 3 nM to 30 μM; read-out: rTASK-1 IC50. On the procedure: (§1) CHO cells expressing recombinant tetracycline-inducible rat KCNK3/TASK-1 (KCNK3-CHO cells) were plated in poly-D-lysine coated 384-well plates at a density of 6,000 cells/well (50 μl/well of 120,000 cells/mL) and allowed to incubate for 72 hrs in the presence of 5% CO2 and 1 μg/mL tetracycline at 30° C. HEK cells expressing recombinant tetracycline-inducible human KCNK9/TASK-3 (KCNK9-HEK cells) were plated at a density of 15,000 cells per well (50 μl/well, 300,000 cells/mL) and incubated overnight at 37° C. and 5% CO2 in the presence of 1 μg/mL tetracycline.
(§2) Drug plates were generated from 10 mM 100% DMSO mother plates. Compounds were transferred to 384-well drug plates and titrated with sequential 1:3 dilutions in 100% DMSO for a total of 9 dilutions. A dilution plate is made by taking 2.4 μl from the mother plate and adding to […] of assay buffer for a 12% DMSO dilution plate. From this dilution plate, a final daughter plate is generated by taking 1 μA of the dilution plate and adding to 40 μA of assay buffer for a final DMSO concentration of 0.3%. Each compound was evaluated in duplicate and the concentration range evaluated was 3 nM to 30 μM.
(§3) When thallium was added to extracellular solution with a stimulus to open channels, Tl^+ flowed down its concentration gradient into the cells and channel activity was detected with an indicator dye, FluxOR™, that increased in cytosolic fluorescence. The FluxOR™ indicator dye was loaded into cells as a membrane permeable acetoxymethyl ester. On the day of each assay, FluxOR™ assay buffer was made fresh from Hank's Balanced Saline Solution (HBSS) buffered with 20 mM HEPES and pH adjusted to 7.4 with NaOH. Dye loading solution was prepared per manufacturer's instructions, and 25 μl of dye solution applied to each well with a multidropper after plating medium was removed manually from cells. Dye was allowed to load for 90 minutes at room temperature in the dark.
(§4) After the 90 min dye loading incubation and subsequent manual dye removal, 24 μl of the drug daughter plate was transfer to cell plates by a cybi-well system and then incubated at room temperature for 20 minutes to allow for equilibration within wells. Stimulation buffer was prepared from 5× chloride-free buffer, thallium, and potassium sulfate containing 5 times the desired final assay concentration of 10 mM K^+ 2.8 mM Tl^+. Cell plates were then transferred to an FDSS 6000 kinetic imaging plate reader (Hamamatsu). Fluorescence at 525 nm (excitation 488 nm) was measured for 10 seconds at 1 Hz to establish baseline for the entire plate. After baseline was established, 6 μl/well of stimulation buffer was added and fluorescence signal recorded for another 140 seconds.
(§5) From the fluorescence signals in the absence and presence of Galleon compounds, Inhibitory concentration curves were plotted and IC50 values were estimated using a curve fitting algorithm.

Another assay deals with T3, human KCNK9/TASK-3 (Homo sapiens, UniProt Q9NPC2).
T3 construct: expressed in transfected cells; host or cells: HEK cells (tetracycline-inducible)
Nature of the assay: Thallium flux through human TASK-3 (KCNK9-HEK cells). Type of assay: cell-based. Conditions: Tl+ flux; 3 nM to 30 μM; read-out: hTASK-3 IC50. As to the method:
as §1, §2, §3, §4, §5

Data on two compounds can be found in patent US9162992B2, “Compounds and compositions for treatment of breathing control disorders or diseases” (GALLEON PHARMACEUTICALS, INC., priority 2010, dated 2015).

T1 sequence (Q62976 whole entry): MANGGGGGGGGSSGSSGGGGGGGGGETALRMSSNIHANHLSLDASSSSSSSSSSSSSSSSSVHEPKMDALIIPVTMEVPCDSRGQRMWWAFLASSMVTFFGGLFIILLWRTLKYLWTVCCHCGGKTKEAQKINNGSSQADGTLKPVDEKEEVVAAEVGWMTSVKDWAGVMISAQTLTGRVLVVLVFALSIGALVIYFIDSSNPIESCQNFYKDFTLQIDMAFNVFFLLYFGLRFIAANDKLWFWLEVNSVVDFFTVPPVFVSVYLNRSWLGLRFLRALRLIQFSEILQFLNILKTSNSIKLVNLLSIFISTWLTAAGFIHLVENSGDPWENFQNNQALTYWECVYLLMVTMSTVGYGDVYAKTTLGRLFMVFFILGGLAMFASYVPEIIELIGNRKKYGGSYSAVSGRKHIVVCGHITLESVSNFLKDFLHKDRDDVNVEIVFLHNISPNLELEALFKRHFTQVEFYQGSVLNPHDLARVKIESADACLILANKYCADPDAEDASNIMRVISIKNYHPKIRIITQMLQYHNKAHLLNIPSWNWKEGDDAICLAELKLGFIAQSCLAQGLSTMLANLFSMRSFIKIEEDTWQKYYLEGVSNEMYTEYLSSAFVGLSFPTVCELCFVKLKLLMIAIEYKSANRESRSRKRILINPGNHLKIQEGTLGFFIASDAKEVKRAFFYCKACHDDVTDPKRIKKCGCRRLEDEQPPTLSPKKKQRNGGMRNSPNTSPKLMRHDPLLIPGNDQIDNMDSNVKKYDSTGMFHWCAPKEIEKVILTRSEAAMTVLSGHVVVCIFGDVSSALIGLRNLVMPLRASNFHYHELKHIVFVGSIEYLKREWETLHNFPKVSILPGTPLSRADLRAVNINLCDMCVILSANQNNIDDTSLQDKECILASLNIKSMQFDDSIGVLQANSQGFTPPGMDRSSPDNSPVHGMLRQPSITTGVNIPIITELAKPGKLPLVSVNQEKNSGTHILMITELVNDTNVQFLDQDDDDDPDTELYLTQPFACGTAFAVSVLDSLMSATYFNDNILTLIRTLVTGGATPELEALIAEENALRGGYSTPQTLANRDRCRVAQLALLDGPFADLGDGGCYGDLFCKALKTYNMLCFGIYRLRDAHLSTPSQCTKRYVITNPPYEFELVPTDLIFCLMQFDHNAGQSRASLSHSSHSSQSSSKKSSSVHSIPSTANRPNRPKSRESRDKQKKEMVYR
T2 sequence (O54912 whole entry): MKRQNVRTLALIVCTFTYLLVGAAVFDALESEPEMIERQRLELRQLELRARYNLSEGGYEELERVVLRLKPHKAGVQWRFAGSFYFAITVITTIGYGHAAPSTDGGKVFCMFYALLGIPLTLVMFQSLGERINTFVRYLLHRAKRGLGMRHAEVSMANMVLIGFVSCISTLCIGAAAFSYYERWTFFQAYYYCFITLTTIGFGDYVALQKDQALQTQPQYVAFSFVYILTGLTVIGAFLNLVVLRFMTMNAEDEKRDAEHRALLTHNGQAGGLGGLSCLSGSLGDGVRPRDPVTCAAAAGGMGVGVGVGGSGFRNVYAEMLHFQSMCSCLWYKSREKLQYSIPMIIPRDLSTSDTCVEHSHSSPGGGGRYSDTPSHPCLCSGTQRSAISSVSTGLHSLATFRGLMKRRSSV
T3 sequence (Q9NPC2 whole entry): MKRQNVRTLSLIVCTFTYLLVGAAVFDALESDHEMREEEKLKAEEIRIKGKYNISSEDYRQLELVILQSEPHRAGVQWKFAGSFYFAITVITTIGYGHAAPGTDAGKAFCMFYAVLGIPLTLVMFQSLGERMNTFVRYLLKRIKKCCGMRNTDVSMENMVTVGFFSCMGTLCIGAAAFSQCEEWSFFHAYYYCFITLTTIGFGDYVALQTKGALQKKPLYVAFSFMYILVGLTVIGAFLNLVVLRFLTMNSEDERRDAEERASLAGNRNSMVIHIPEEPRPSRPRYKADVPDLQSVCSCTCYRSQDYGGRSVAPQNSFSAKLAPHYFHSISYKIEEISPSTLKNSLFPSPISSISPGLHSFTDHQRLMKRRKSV

Consider `CCCNc1nc(NCCC)nc(N(C)OC)n1` [XXXV, N-(4,6-Bis-n-propylamino-[1,3,5]triazin-2-yl)-N,O-dimethyl-hydroxylamine], for which, in assay [1] (10 μM), the “reduction of total channel open probability” value was 42%. For the same compound, the “inhibition of the native BK channel” value in assay [1] (1 and 10 μM) is “concentration—dependent inhibition”. In assay [1] ((XXXV) 1 (mM as printed)), the “Inhibition (%), Average” value was 22.3% and the “NPo, Average” value is 0.014. Moreover, in assay [1] ((XXXV) 10 (mM as printed)), the “Inhibition (%), Average” value is 41.4% and the “NPo, Average” value amounted to 0.020.

The term IC50 denotes the point on the concentration scale where inhibition reaches its midpoint. Turning to `CCCNc1nc(NCCC)nc(N(C)OC)n1.O=S(=O)(O)O` [XXXVI, N-(4,6-Bis-n-propylamino-[1,3,5]triazin-2-yl)-N,O-dimethyl-hydroxylamine hydrogen sulfate], the “arterial blood gases, reversal of opioid-induced respiratory depression” value in assay [2] (infusion 0.1, 0.3 and 1.0 mg/kg/min, vs vehicle) is reported as “significantly reverses opioid-induced respiratory depression”. Also, the “PaCO2 (% reversal)” value worked out at 18 % reversal in assay [2] (infusion 0.03 mg/kg/min), 47 % reversal in assay [2] (infusion 0.1 mg/kg/min), 72 % reversal in assay [2] (infusion 0.3 mg/kg/min) and 94 % reversal in assay [2] (infusion 1 mg/kg/min). Further, the “PaO2 (% reversal)” value in assay [2] (infusion 0.03 mg/kg/min) is given as −2.0 % reversal; in assay [2] (infusion 0.1 mg/kg/min), 16 % reversal; in assay [2] (infusion 0.3 mg/kg/min), −16 % reversal; in assay [2] (infusion 1 mg/kg/min), 26 % reversal. The “SaO2 (% reversal)” value is 42 % reversal in assay [2] (infusion 0.03 mg/kg/min), 51 % reversal in assay [2] (infusion 0.1 mg/kg/min), 43 % reversal in assay [2] (infusion 0.3 mg/kg/min) and 62 % reversal in assay [2] (infusion 1 mg/kg/min). Further, the “pH (% reversal)” value in assay [2] (infusion 0.03 mg/kg/min) is 20 % reversal; in assay [2] (infusion 0.1 mg/kg/min) it was 37 % reversal; in assay [2] (infusion 0.3 mg/kg/min), 55 % reversal; in assay [2] (infusion 1 mg/kg/min), 60 % reversal. In addition, the IC50 at rat KCNK3/TASK-1 was 25 µM; on human KCNK9/TASK-3, more than 30 µM.
